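GI50 is the concentration that inhibits growth by half. TGI marks complete inhibition of growth.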
Assays:
Test in all cases: DTP human tumour cell line panel, 384-well format
MCF7 breast = tested on: MCF7 breast
K-562 leukemia = tested on: K-562 leukemia
RPMI-8226 leukemia = tested on: RPMI-8226 leukemia
SF-268 CNS = tested on: SF-268 CNS
MOLT-4 leukemia = tested on: MOLT-4 leukemia
MDA-MB-468 breast = tested on: MDA-MB-468 breast
OVCAR-3 ovarian = tested on: OVCAR-3 ovarian
SK-MEL-5 melanoma = tested on: SK-MEL-5 melanoma
TK-10 renal = tested on: TK-10 renal
A498 renal = tested on: A498 renal
HL-60(TB) leukemia = tested on: HL-60(TB) leukemia
SNB-75 CNS = tested on: SNB-75 CNS
T-47D breast = tested on: T-47D breast
SW-620 colon = tested on: SW-620 colon
HOP-92 NSCLC = tested on: HOP-92 NSCLC
NCI-H460 NSCLC = tested on: NCI-H460 NSCLC
NCI-H23 lung = tested on: NCI-H23 lung
HCC-2998 colon = tested on: HCC-2998 colon
RXF 393 renal = tested on: RXF 393 renal
SK-MEL-28 melanoma = tested on: SK-MEL-28 melanoma
BT-549 breast = tested on: BT-549 breast
M14 melanoma = tested on: M14 melanoma
LOX IMVI melanoma = tested on: LOX IMVI melanoma
SF-539 CNS = tested on: SF-539 CNS
NCI-H522 lung = tested on: NCI-H522 lung
NCI-H322M lung = tested on: NCI-H322M lung
ACHN renal = tested on: ACHN renal
MDA-MB-435 melanoma = tested on: MDA-MB-435 melanoma
HS 578T breast = tested on: HS 578T breast
EKVX NSCLC = tested on: EKVX NSCLC
IGROV1 ovarian = tested on: IGROV1 ovarian
CCRF-CEM leukemia = tested on: CCRF-CEM leukemia
CAKI-1 renal = tested on: CAKI-1 renal
UACC-62 melanoma = tested on: UACC-62 melanoma
UACC-257 melanoma = tested on: UACC-257 melanoma
U251 glioblastoma = tested on: U251 glioblastoma
SR leukemia = tested on: SR leukemia
PC-3 prostate = tested on: PC-3 prostate
NCI-H226 lung = tested on: NCI-H226 lung
SF-295 CNS = tested on: SF-295 CNS
MDA-MB-231 breast = tested on: MDA-MB-231 breast
SN12C renal = tested on: SN12C renal
HT29 colon = tested on: HT29 colon
SK-MEL-2 melanoma = tested on: SK-MEL-2 melanoma
HCT-15 colon = tested on: HCT-15 colon
HCT-116 colon = tested on: HCT-116 colon
OVCAR-5 ovarian = tested on: OVCAR-5 ovarian
786-0 renal = tested on: 786-0 renal
MALME-3M melanoma = tested on: MALME-3M melanoma
A549 NSCLC = tested on: A549 NSCLC
OVCAR-4 ovarian = tested on: OVCAR-4 ovarian
DU-145 prostate = tested on: DU-145 prostate
NCI/ADR-RES ovarian = tested on: NCI/ADR-RES ovarian
SNB-19 CNS = tested on: SNB-19 CNS
KM12 colon = tested on: KM12 colon
SK-OV-3 ovarian = tested on: SK-OV-3 ovarian
HOP-62 NSCLC = tested on: HOP-62 NSCLC
UO-31 renal = tested on: UO-31 renal

Work on `CC(C)C[C@H](NC(=O)CNC(=O)c1cc(Cl)ccc1Cl)B(O)O` yielded a GI50 (MCF7 breast) of 34.7 nM, a TGI (MCF7 breast) of 2660 nM and a GI50 (K-562 leukemia) of 33.8 nM. For the same molecule, the TGI (K-562 leukemia) was 126 nM, the GI50 (RPMI-8226 leukemia) was less than 10 nM and the GI50 (SF-268 CNS) was 26 nM. For the same molecule, the TGI (SF-268 CNS) was 60.6 nM, the GI50 (MOLT-4 leukemia) was less than 10 nM and the TGI (MOLT-4 leukemia) was 11.4 nM. It also gave a GI50 (MDA-MB-468 breast) of 18.9 nM, a TGI (MDA-MB-468 breast) of 38.7 nM and a GI50 (OVCAR-3 ovarian) of 14.9 nM. For the same molecule, the TGI (OVCAR-3 ovarian) was 31.4 nM, the GI50 (SK-MEL-5 melanoma) was 19.7 nM and the TGI (SK-MEL-5 melanoma) was 41.7 nM. The GI50 (TK-10 renal) was 20.8 nM, the TGI (TK-10 renal) was 54 nM and the GI50 (A498 renal) was 71.4 nM. It also gave a TGI (A498 renal) of 1310 nM, a GI50 (HL-60(TB) leukemia) of 10.9 nM and a TGI (HL-60(TB) leukemia) of 23 nM. It also gave a GI50 (SNB-75 CNS) of 111 nM, a TGI (SNB-75 CNS) of 299 nM and a GI50 (T-47D breast) of 32.9 nM. It also gave a TGI (T-47D breast) of 62.8 nM, a GI50 (SW-620 colon) of 17.7 nM and a TGI (SW-620 colon) of 34 nM. It also gave a GI50 (HOP-92 NSCLC) of 27.5 nM, a TGI (HOP-92 NSCLC) of 81.7 nM and a GI50 (NCI-H460 NSCLC) of 61.6 nM. It also gave a TGI (NCI-H460 NSCLC) of 263 nM, a GI50 (NCI-H23 lung) of 22.7 nM and a TGI (NCI-H23 lung) of 65.5 nM. For the same molecule, the GI50 (HCC-2998 colon) was 30.6 nM, the TGI (HCC-2998 colon) was 130 nM and the GI50 (RXF 393 renal) was 18 nM. For the same molecule, the TGI (RXF 393 renal) was 33 nM, the GI50 (SK-MEL-28 melanoma) was 16.6 nM and the TGI (SK-MEL-28 melanoma) was 32 nM. The GI50 (BT-549 breast) was 20.6 nM, the TGI (BT-549 breast) was 36.3 nM and the GI50 (M14 melanoma) was 17.1 nM. The TGI (M14 melanoma) was 32.4 nM, the GI50 (LOX IMVI melanoma) was 40.6 nM and the TGI (LOX IMVI melanoma) was 136 nM. For the same molecule, the GI50 (SF-539 CNS) was 20.7 nM, the TGI (SF-539 CNS) was 35.2 nM and the GI50 (NCI-H522 lung) was 16.5 nM. For the same molecule, the TGI (NCI-H522 lung) was 30.9 nM, the GI50 (NCI-H322M lung) was 572 nM and the TGI (NCI-H322M lung) was 6.5 µM. For the same molecule, the GI50 (ACHN renal) was 20.8 nM, the TGI (ACHN renal) was 71.2 nM and the GI50 (MDA-MB-435 melanoma) was 16 nM. The TGI (MDA-MB-435 melanoma) was 30.2 nM, the GI50 (HS 578T breast) was 20.9 nM and the TGI (HS 578T breast) was 39.4 nM. For the same molecule, the GI50 (EKVX NSCLC) was 83 nM, the TGI (EKVX NSCLC) was 396 nM and the GI50 (IGROV1 ovarian) was 80.2 nM. For the same molecule, the TGI (IGROV1 ovarian) was 590 nM, the GI50 (CCRF-CEM leukemia) was less than 10 nM and the GI50 (CAKI-1 renal) was 31.2 nM. It also gave a TGI (CAKI-1 renal) of 155 nM, a GI50 (UACC-62 melanoma) of 27.5 nM and a TGI (UACC-62 melanoma) of 81.1 nM. The GI50 (UACC-257 melanoma) was 20 nM, the TGI (UACC-257 melanoma) was 36.7 nM and the GI50 (U251 glioblastoma) was 67.6 nM. It also gave a TGI (U251 glioblastoma) of 1100 nM, a GI50 (SR leukemia) of 11.1 nM and a TGI (SR leukemia) of 23.4 nM. It also gave a GI50 (PC-3 prostate) of 90.8 nM, a TGI (PC-3 prostate) of 298 nM and a GI50 (NCI-H226 lung) of 11.1 nM. For the same molecule, the TGI (NCI-H226 lung) was 23.6 nM, the GI50 (SF-295 CNS) was 55.5 nM and the TGI (SF-295 CNS) was 236 nM. It also gave a GI50 (MDA-MB-231 breast) of 29.3 nM, a TGI (MDA-MB-231 breast) of 66.1 nM and a GI50 (SN12C renal) of 62.2 nM. It also gave a TGI (SN12C renal) of 243 nM, a GI50 (HT29 colon) of 19.8 nM and a TGI (HT29 colon) of 45.2 nM. The GI50 (SK-MEL-2 melanoma) was 33.6 nM, the TGI (SK-MEL-2 melanoma) was 51.3 nM and the GI50 (HCT-15 colon) was 29.2 nM. It also gave a TGI (HCT-15 colon) of 115 nM, a GI50 (HCT-116 colon) of 17.5 nM and a TGI (HCT-116 colon) of 34 nM. For the same molecule, the GI50 (OVCAR-5 ovarian) was 66.6 nM, the TGI (OVCAR-5 ovarian) was 277 nM and the GI50 ([…]-0 renal) was 37.7 nM. It also gave a TGI (786-0 renal) of 170 nM, a GI50 (MALME-3M melanoma) of 16.9 nM and a TGI (MALME-3M melanoma) of 35 nM. For the same molecule, the GI50 (A549 NSCLC) was 130 nM, the TGI (A549 NSCLC) was 1680 nM and the GI50 (OVCAR-4 ovarian) was 82.1 nM. For the same molecule, the TGI (OVCAR-4 ovarian) was 219 nM, the GI50 (DU-145 prostate) was 46.7 nM and the TGI (DU-145 prostate) was 457 nM. The GI50 (NCI/ADR-RES ovarian) was 235 nM, the TGI (NCI/ADR-RES ovarian) was 781 nM and the GI50 (SNB-19 CNS) was 84.2 nM. For the same molecule, the TGI (SNB-19 CNS) was 421 nM, the GI50 (KM12 colon) was 50.7 nM and the TGI (KM12 colon) was 165 nM. For the same molecule, the GI50 (SK-OV-3 ovarian) was 184 nM, the TGI (SK-OV-3 ovarian) was 1520 nM and the GI50 (HOP-62 NSCLC) was 54.7 nM. It also gave a TGI (HOP-62 NSCLC) of 268 nM, a GI50 (UO-31 renal) of 26.3 nM and a TGI (UO-31 renal) of 66.1 nM.
